In ChEMBL document CHEMBL1795233, “The geranyl-modified tryptophan residue is crucial for ComXRO-E-2 pheromone biological activity” (Bioorg Med Chem Lett, 2011):
*1 amine or outer side, *2 acyl side, *3 side chain or, on linkers, in order; H or OH if unused. Where a SMILES comes first, the peptide text is derived from it. [ ]: non-standard residue; d: D form. X2 = CC(C)=CCC/C(C)=C/CC/C(C)=C/C[C@]12C[C@@H](C(=O)[*:2])N([*:1])[C@H]1Nc1ccccc12; X4 = CC(C)=CCC/C(C)=C/C[C@]12C[C@@H](C(=O)[*:2])N([*:1])[C@H]1Nc1ccccc12; X1 = C/C(=C\C[C@]12C[C@@H](C(=O)[*:2])N([*:1])[C@H]1Nc1ccccc12)CCCC(C)C; X3 = CC(C)=CC[C@]12C[C@@H](C(=O)[*:2])N([*:1])[C@H]1Nc1ccccc12

Columns and labels:
[1] = system: Bacillus subtilis; assay: Effect on quorum sensing-mediated genetic competence in Bacillus subtilis expressing srfA-lacZ fusion assessed as maximum activity after 5 hrs by beta-galactosidase assay relative to ComXRO-E-2 pheromone
[2] = Effect on quorum sensing-mediated genetic competence in Bacillus subtilis expressing srfA-lacZ fusion assessed as concentration required to show same activity at EC50 of ComXRO-E-2 pheromone after 5 hrs by beta-galactosidase assay
[3] = system: Bacillus subtilis; assay: Effect on quorum sensing-mediated genetic competence in Bacillus subtilis expressing srfA-lacZ fusion assessed as concentration required to show same activity at EC25 of ComXRO-E-2 pheromone after 5 hrs by beta-galactosidase assay

Emax [1]	EC50 [2]	EC25 [3]	Structure (SMILES)
35%	> 300 nM	20 nM	CC[C@H](C)[C@H](NC(=O)CN)C(=O)N[C@@H](Cc1ccccc1)C(=O)N1[C@H]2Nc3ccccc3[C@@]2(C/C=C(\C)CC/C=C(\C)CCC=C(C)C)C[C@H]1C(=O)N[C@@H](CCC(=O)O)C(=O)N[C@@H](CCC(N)=O)C(=O)O (H-GIF[X2]EQ-OH)
0%	> 300 nM	> 300 nM	CC[C@H](C)[C@H](NC(=O)CN)C(=O)N[C@@H](Cc1ccccc1)C(=O)N1[C@H]2Nc3ccccc3[C@@]2(CC=C(C)C)C[C@H]1C(=O)N[C@@H](CCC(=O)O)C(=O)N[C@@H](CCC(N)=O)C(=O)O (H-GIF[X3]EQ-OH)
15%	> 300 nM	> 300 nM	CC(C)=CCC/C(C)=C/C[C@]12C[C@@H](C(=O)N[C@@H](C)C(=O)O)N(C(=O)[C@@H](N)Cc3cc4ccccc4[nH]3)[C@H]1Nc1ccccc12
5%	> 300 nM	> 300 nM	CC(C)=CCC/C(C)=C/C[C@]12C[C@@H](C(=O)N[C@@H](C)C(=O)O)N(C(=O)[C@@H](N)CC(N)=O)[C@H]1Nc1ccccc12
0%	> 300 nM	> 300 nM	CC(C)=CCC/C(C)=C/C[C@]12C[C@@H](C(N)=O)N(C(=O)c3ccccc3)[C@H]1Nc1ccccc12
70%	60 nM	3 nM	CC(C)=CCC/C(C)=C/C[C@]12C[C@@H](C(=O)N[C@@H](C)C(=O)O)N(C(=O)C(N)Cc3ccccc3)[C@H]1Nc1ccccc12 (single isomer, unassigned)
5%	> 300 nM	> 300 nM	CC(C)=CCC/C(C)=C/C[C@]12C[C@H]3C(=O)N[C@@H](Cc4ccccc4)C(=O)N3[C@H]1Nc1ccccc12
5%	> 300 nM	> 300 nM	CC(C)=CCC/C(C)=C/C[C@]12C[C@@H](C(=O)N[C@@H](C)C(=O)O)N(C(=O)[C@@H]3CCCN3)[C@H]1Nc1ccccc12
60%	20 nM	8 nM	CC(C)=CCC/C(C)=C/C[C@]12C[C@@H](C(=O)N[C@@H](CCC(=O)O)C(=O)O)N(C(=O)C(N)Cc3ccccc3)[C@H]1Nc1ccccc12 (single isomer, unassigned)
20%	> 300 nM	> 300 nM	CC(C)=CCC/C(C)=C/C[C@]12C[C@@H](C(=O)N[C@@H](CCC(=O)O)C(=O)O)N(C(=O)[C@H](C)N)[C@H]1Nc1ccccc12
35%	> 300 nM	50 nM	CC(C)=CCC/C(C)=C/C[C@]12C[C@@H](C(N)=O)N(C(=O)[C@@H](N)Cc3ccccc3)[C@H]1Nc1ccccc12
75%	20 nM	2 nM	CC[C@H](C)[C@H](NC(=O)CN)C(=O)N[C@@H](Cc1ccccc1)C(=O)N1[C@H]2Nc3ccccc3[C@@]2(C/C=C(\C)CCCC(C)C)C[C@H]1C(=O)N[C@@H](CCC(=O)O)C(=O)N[C@@H](CCC(N)=O)C(=O)O (H-GIF[X1]EQ-OH)
–	1 nM	0.3 nM	CC[C@H](C)[C@H](NC(=O)CN)C(=O)N[C@@H](Cc1ccccc1)C(=O)N1[C@H]2Nc3ccccc3[C@@]2(C/C=C(\C)CCC=C(C)C)C[C@H]1C(=O)N[C@@H](CCC(=O)O)C(=O)N[C@@H](CCC(N)=O)C(=O)O (H-GIF[X4]EQ-OH)
10%	> 300 nM	> 300 nM	COC(=O)[C@@H]1C[C@]2(C/C=C(\C)CCC=C(C)C)c3ccccc3N[C@@H]2N1C(=O)[C@H](Cc1ccccc1)NC(C)=O
40%	> 300 nM	200 nM	CC(C)=CCC/C(C)=C/C[C@]12C[C@@H](C(=O)NCC(=O)O)N(C(=O)C(N)Cc3ccccc3)[C@H]1Nc1ccccc12 (single isomer, unassigned)
20%	> 300 nM	> 300 nM	CC(C)=CCC/C(C)=C/C[C@]12C[C@@H](C(=O)N[C@@H](C)C(=O)O)N(C(=O)[C@@H](N)CC(C)C)[C@H]1Nc1ccccc12
40%	> 300 nM	200 nM	CC[C@H](C)[C@H](NC(=O)CN)C(=O)N[C@@H](Cc1ccccc1)C(=O)N1[C@H]2Nc3ccccc3[C@@]2(CCC(C)CCCC(C)C)C[C@H]1C(=O)N[C@@H](CCC(=O)O)C(=O)N[C@@H](CCC(N)=O)C(=O)O (mixture of isomers)
15%	> 300 nM	> 300 nM	CC(C)=CCC/C(C)=C/C[C@]12C[C@@H](C(=O)N[C@@H](C)C(=O)O)N(C(=O)[C@H](C)N)[C@H]1Nc1ccccc12
35%	> 300 nM	20 nM	CC[C@H](C)[C@H](N)C(=O)N1[C@H]2Nc3ccccc3[C@@]2(C/C=C(\C)CCC=C(C)C)C[C@H]1C(=O)N[C@@H](C)C(=O)O

Structure (SMILES)	Emax [1]	EC50 [2]	EC25 [3]
CC(C)=CCC/C(C)=C/C[C@]12C[C@@H](C(=O)N[C@@H](C)C(=O)O)N(C(=O)[C@@H](N)Cc3ccc(O)cc3)[C@H]1Nc1ccccc12	25%	> 300 nM	100 nM
